Source: ChEMBL document CHEMBL1201862, “PubChem BioAssay data set” (2004)
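Assay format: 96-well plates, 48-hour exposure. Abbreviation: GI50, concentration required for 50% inhibition of growth.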 Active and inactive are the calls of the source. Rule as the data show it: active = GI50 up to about 1.1 µM and inactive = higher.

Columns and labels:
Assay in all cases: NCI anticancer screen, dose series, 48 h
ACHN = tested on: ACHN
NCI-H23 = tested on: NCI-H23
SK-MEL-28 = tested on: SK-MEL-28
BT-549 = tested on: BT-549
NCI-H460 = tested on: NCI-H460
OVCAR-8 = tested on: OVCAR-8
HT-29 = tested on: HT-29
MCF7 = tested on: MCF7
SW-620 = tested on: SW-620
MDA-MB-231 = tested on: MDA-MB-231
SK-MEL-5 = tested on: SK-MEL-5
A498 = tested on: A498
RXF 393 = tested on: RXF 393
PC-3 = tested on: PC-3
OVCAR-4 = tested on: OVCAR-4
SF-539 = tested on: SF-539
DU-145 = tested on: DU-145
MDA-MB-435 = tested on: MDA-MB-435
SF-268 = tested on: SF-268

Measured: GI50

c1ccc(/N=C2\C(=N/c3ccccc3)N(C3CCCCC3)/C(=N\C3CCCCC3)N2c2ccccc2)cc1
inactive: ACHN > 100 µM | NCI-H23 > 100 µM | SK-MEL-28 > 100 µM | BT-549 > 100 µM | NCI-H460 > 100 µM | OVCAR-8 > 100 µM | HT-29 > 100 µM | MCF7 > 100 µM | SW-620 > 100 µM | MDA-MB-231 > 100 µM | SK-MEL-5 > 100 µM | A498 > 100 µM | RXF 393 > 100 µM | PC-3 > 100 µM

C=CC(=O)NCCC(=O)OCn1cc(F)c(=O)[nH]c1=O
inactive: ACHN 5.02 µM | NCI-H23 7.01 µM | SK-MEL-28 32.2 µM | SF-539 2.65 µM | BT-549 > 100 µM | DU-145 3.64 µM | OVCAR-8 11.5 µM | HT-29 4.12 µM | MDA-MB-435 5.32 µM | MCF7 1.2 µM | SW-620 17.2 µM | SK-MEL-5 3.67 µM | SF-268 18.7 µM | RXF 393 10.1 µM | PC-3 9.12 µM
active: OVCAR-4 0.759 µM | NCI-H460 0.434 µM | A498 0.456 µM

CC(=O)OCCN(C1=NCCN1)/[N+](C=c1ccc(=C=[N-])cc1)=C/c1ccc(C#N)cc1
inactive: ACHN > 100 µM | NCI-H23 > 100 µM | OVCAR-4 > 100 µM | SK-MEL-28 > 100 µM | SF-539 > 100 µM | BT-549 > 100 µM | NCI-H460 > 100 µM | OVCAR-8 > 100 µM | HT-29 > 100 µM | MDA-MB-435 > 100 µM | MCF7 > 100 µM | SW-620 > 100 µM | MDA-MB-231 > 100 µM | SK-MEL-5 > 100 µM | SF-268 > 100 µM | RXF 393 > 100 µM | PC-3 > 100 µM

Cc1c2c(n(CCc3ccc(Cl)cc3)c1C)NN=C(C#N)S2(=O)=O
inactive: ACHN > 100 µM | NCI-H23 > 100 µM | OVCAR-4 > 100 µM | SK-MEL-28 > 100 µM | SF-539 > 100 µM | NCI-H460 > 100 µM | DU-145 > 100 µM | HT-29 > 100 µM | MDA-MB-435 42.2 µM | MCF7 > 100 µM | SW-620 > 100 µM | MDA-MB-231 > 100 µM | SK-MEL-5 > 100 µM | SF-268 48.5 µM | PC-3 > 100 µM

O=[N+]([O-])c1cc(Cl)c(Cl)cc1[N+](=O)[O-]
inactive: ACHN 2.56 µM | NCI-H23 2.14 µM | OVCAR-4 2.48 µM | SK-MEL-28 2.64 µM | SF-539 2.13 µM | NCI-H460 3.24 µM | DU-145 2.07 µM | OVCAR-8 2.91 µM | HT-29 4.16 µM | MDA-MB-435 4.07 µM | MCF7 2.06 µM | SW-620 2.91 µM | MDA-MB-231 2.25 µM | SK-MEL-5 14.6 µM | A498 18.5 µM | SF-268 1.81 µM | RXF 393 1.63 µM | PC-3 1.74 µM

COc1cc(OC)cc(C(=O)CC(=O)c2cc(OC)cc(OC)c2)c1
inactive: ACHN > 100 µM | NCI-H23 > 100 µM | SK-MEL-28 > 100 µM | SF-539 > 100 µM | BT-549 > 100 µM | NCI-H460 56.9 µM | DU-145 > 100 µM | OVCAR-8 > 100 µM | MDA-MB-435 87.5 µM | MCF7 > 100 µM | SW-620 95.1 µM | SK-MEL-5 > 100 µM | A498 > 100 µM | SF-268 > 100 µM | RXF 393 > 100 µM | PC-3 94.4 µM

O=C(/C=C/c1ccc2c(c1)OCO2)CC(=O)/C=C/c1ccc2c(c1)OCO2
inactive: ACHN 84.3 µM | NCI-H23 19.6 µM | OVCAR-4 19.1 µM | SK-MEL-28 > 10 µM | SF-539 76.7 µM | NCI-H460 82.8 µM | DU-145 > 10 µM | HT-29 > 100 µM | MDA-MB-435 > 100 µM | MCF7 77.4 µM | SW-620 > 100 µM | MDA-MB-231 34.6 µM | SK-MEL-5 > 100 µM | SF-268 > 10 µM | RXF 393 87.7 µM | PC-3 86.3 µM

COC(=O)C(Cc1cn(C(C)n2cc(CC(NC(C)=O)C(=O)OC)c3ccccc32)c2ccccc12)NC(C)=O (configuration not stated)
inactive: NCI-H23 > 100 µM | OVCAR-4 > 100 µM | SK-MEL-28 > 100 µM | BT-549 > 100 µM | NCI-H460 63.2 µM | DU-145 > 100 µM | HT-29 > 100 µM | MDA-MB-435 > 100 µM | SW-620 > 100 µM | MDA-MB-231 44.5 µM | SK-MEL-5 73.3 µM | A498 > 100 µM | SF-268 48.1 µM | PC-3 > 100 µM

CCOC(=O)C(COS(C)(=O)=O)(COS(C)(=O)=O)C(=O)OCC
inactive: ACHN > 100 µM | NCI-H23 > 100 µM | OVCAR-4 > 100 µM | SK-MEL-28 > 100 µM | NCI-H460 > 100 µM | DU-145 > 100 µM | OVCAR-8 > 100 µM | HT-29 > 100 µM | MDA-MB-435 > 100 µM | MCF7 > 100 µM | SW-620 > 100 µM | MDA-MB-231 > 100 µM | SK-MEL-5 > 100 µM | A498 11.1 µM | SF-268 > 100 µM | RXF 393 > 100 µM | PC-3 > 100 µM

CCN(CC)Cc1ccc(C(=S)Nc2ccc(Cl)cc2)s1
inactive: ACHN 14.2 µM | NCI-H23 2.34 µM | OVCAR-4 10 µM | SK-MEL-28 6.92 µM | SF-539 13.9 µM | BT-549 5.18 µM | NCI-H460 11.9 µM | DU-145 15 µM | OVCAR-8 3.75 µM | HT-29 2.91 µM | MDA-MB-435 9.91 µM | MCF7 11 µM | SW-620 12.2 µM | SK-MEL-5 4.24 µM | A498 12 µM | SF-268 11.3 µM | PC-3 13.2 µM

NNC1=N/C(=C\c2ccccc2O)C(=O)N1
inactive: ACHN 30.9 µM | NCI-H23 53.6 µM | SK-MEL-28 60.8 µM | SF-539 25.4 µM | BT-549 37.9 µM | NCI-H460 20.2 µM | DU-145 34.9 µM | OVCAR-8 27.6 µM | HT-29 53.6 µM | MDA-MB-435 61.4 µM | SW-620 47.1 µM | MDA-MB-231 35.4 µM | SK-MEL-5 35 µM | A498 > 100 µM | SF-268 31 µM | RXF 393 49.3 µM | PC-3 49.2 µM

CCOC(=O)c1c(N2CCCC2)ncn(Cc2ccccc2)c1=S
inactive: ACHN 95.1 µM | NCI-H23 > 100 µM | OVCAR-4 91.4 µM | SK-MEL-28 > 100 µM | SF-539 > 100 µM | BT-549 > 100 µM | NCI-H460 > 100 µM | DU-145 > 100 µM | OVCAR-8 > 100 µM | HT-29 > 100 µM | MDA-MB-435 > 100 µM | SW-620 > 100 µM | MDA-MB-231 > 100 µM | SK-MEL-5 65.3 µM | A498 49.4 µM | SF-268 > 100 µM | RXF 393 > 100 µM | PC-3 90.4 µM

CCCCn1cnnc1NS(=O)(=O)c1cc(C)c(Cl)cc1SCC(=O)O
inactive: ACHN > 10 µM | NCI-H23 > 10 µM | OVCAR-4 > 10 µM | SK-MEL-28 > 10 µM | SF-539 > 10 µM | BT-549 > 10 µM | NCI-H460 > 10 µM | DU-145 > 10 µM | OVCAR-8 > 10 µM | HT-29 > 10 µM | MDA-MB-435 > 10 µM | SW-620 > 10 µM | MDA-MB-231 > 10 µM | SK-MEL-5 > 10 µM | A498 > 10 µM | SF-268 > 10 µM | RXF 393 > 10 µM | PC-3 > 10 µM

Cc1cc(-c2ccc(C(=O)C(Cl)(Cl)Cl)[nH]2)on1
inactive: ACHN 27.9 µM | NCI-H23 23.8 µM | OVCAR-4 35.5 µM | SK-MEL-28 31.4 µM | SF-539 15.3 µM | BT-549 33.3 µM | NCI-H460 10.2 µM | DU-145 16.1 µM | OVCAR-8 32.7 µM | HT-29 28.4 µM | MDA-MB-435 20.5 µM | SW-620 50.6 µM | MDA-MB-231 18 µM | SK-MEL-5 32.8 µM | A498 41.3 µM | SF-268 36.9 µM | RXF 393 17.1 µM | PC-3 29.9 µM

N/N=C(\N)SCc1ccc(N=C=S)cc1
inactive: ACHN > 100 µM | NCI-H23 > 100 µM | OVCAR-4 > 100 µM | SK-MEL-28 > 100 µM | SF-539 > 100 µM | NCI-H460 > 100 µM | DU-145 > 100 µM | OVCAR-8 > 100 µM | HT-29 > 100 µM | MDA-MB-435 > 100 µM | SW-620 > 100 µM | MDA-MB-231 > 100 µM | SK-MEL-5 > 100 µM | A498 > 100 µM | SF-268 > 100 µM | RXF 393 > 100 µM | PC-3 > 100 µM

COc1ccc2c(c1)[n+]([O-])c(C#N)c(N1CCN(c3ccc([N+](=O)[O-])cc3)CC1)[n+]2[O-]
inactive: ACHN 2.7 µM | NCI-H23 3.23 µM | OVCAR-4 3.94 µM | SK-MEL-28 16.3 µM | SF-539 2.21 µM | BT-549 3.69 µM | NCI-H460 3.63 µM | DU-145 8.22 µM | OVCAR-8 2.09 µM | HT-29 > 22.4 µM | MDA-MB-435 5.13 µM | SW-620 5.55 µM | MDA-MB-231 5.31 µM | SK-MEL-5 3.59 µM | SF-268 2.91 µM | RXF 393 6.89 µM | PC-3 3.34 µM
